According to patent US9772334B2, “Inflammatory bowel disease markers and therapies for colitis-associated intestinal fibrosis” (THE REGENTS OF THE UNIVERSITY OF CALIFORNIA, priority 2012, dated 2017):
Entries after “also recorded” stand apart in the source; their conditions may differ.

Columns and labels:
[1] = system: TNFα expression in Raw264.7 macrophages; assay: PAMP induced TNFα expression in Raw264.7 macrophages; type: cell-based, mouse; details: for LPS induced TNFα expression under IGF-1R inhibition: IGF-1R inhibitor 10 μM pretreatment 30 minutes, LPS 0.1 μg/ml
Protocol: (§1) To identify the anti-inflammatory mechanism of cathelicidin, human PBMCs and mouse macrophages to were exposed to PAMP signals (LPS and E. coli DNA) in the presence of cathelicidin LL-37 or mCRAMP (1-10 μM).

CCD-18Co fibroblasts = assay: β-tubulin expression and tubulin distribution in CCD-18Co fibroblasts; type: cell-based, human; details: for tubulin distribution (tubulin tracker): 10 μM, 24 hours
[2] = system: human colonic CCD-18Co fibroblasts; assay: TGF-β1 and IGF-1 induced collagen (COL1A2) expression in CCD-18Co fibroblasts; type: cell-based
Excerpt: Collagen (COL1A2) and total ERK protein expression was detected by Western blot analyses and quantitative image densitometry.

DSS mediated colitis [3] = details: animal models; Vieira et al. 2011; cited from earlier work
Raw264.7 macrophages = assay: Camp mRNA expression in Raw264.7 macrophages; type: cell-based, mouse; details: 5 mM; 6 and 24 hours; serum starved
[4] = system: human colonic epithelial NCM460 cells; assay: Cathelicidin protein level in conditioned media of NCM460 cells; type: cell-based; details: 5 mM; 16 hours; serum starved
Excerpt: (§2) FIGS. 16A-16F show sodium butyrate inhibited colonic TNFα expression but not colonic microflora load. […] The decrease of TNFα levels in Camp^−/− mice was minimized (drop by 4 pg/μg protein), compared to wild-type mice (drop by 6 pg/μg protein). […] All experiments are representative of 3 independent experiments.

DSS mediated colitis [5] = assay: DSS mediated colitis in mice, intraperitoneal sodium butyrate; type: in vivo
Excerpt: FIGS. 15A-15D show endogenous cathelicidin induction by sodium butyrate ameliorated DSS mediated colitis in mice. FIG. 15A is an illustration of the administration of DSS and/or sodium butyrate to mCRAMP deficient (Camp^−/−) and wild-type mice (i.e., the experimental plan).
as §2
To investigate the role of endogenous cathelicidin induction in the amelioration of acute colitis, mCRAMP deficient (Camp^−/−) and wild-type mice were administered with DSS and/or sodium butyrate as illustrated in FIG. 15A. DSS colitis led to significant tissue damages (FIG. 15C) with body weight loss (FIG. 15B) and increased histology score (FIG. 15C).

UC disease activity = details: humans; Vernia et al. 2000; cited from earlier work
[6] = system: human primary colonic fibroblasts; assay: TGF-β1 and IGF-1 induced COL1A2 mRNA expression in human primary colonic fibroblasts; type: cell-based; details: LL-37 5-10 μM; 24 hours; p=0.0108 and p=0.0049; concentration dependent
Protocol: Camp mRNA in Camp^−/− mice was undetectable. […] Collagen (COL1A2) and total ERK protein expression was detected by Western blot analyses and quantitative image densitometry. […] TGF-β1 and IGF-1 induced COL1A2 mRNA expression in colonic fibroblasts (P=0.049) was inhibited by LL-37 (5-10 μM, p=0.001) in concentration dependent manner. […] TGF-β1 and IGF-1 induced COL1A2 mRNA expression in colonic fibroblasts (P=0.0233) was inhibited by LL-37 (5-10 μM, p=0.0108 and p=0.0049) in concentration dependent manner. All experiments are representative of 3 independent experiments.

[7] = system: Akt and ERK phosphorylation in CCD-18Co fibroblasts; assay: Akt and ERK phosphorylation in CCD-18Co fibroblasts (Western blot); details: 30 minutes, concentration dependent
[8] = system: TNFα expression in fresh human colonic biopsies; assay: LPS induced TNFα protein expression in fresh human colonic biopsies; type: cell-based; details: LL-37 10 μM; LPS 0.1 μg/ml; 16 hours
Protocol: Human intestinal biopsies were obtained from normal patients, UC patients and CD patients after informed consent in accordance with procedures established by the Cedars-Sinai Institutional Review Board, IRBs 3358 and 23705 and UCLA Institutional Review Board IRB 11-001527. Baseline characteristics were outlined in FIG. 12B. Some fresh biopsies were frozen until homogenization. Some fresh colonic biopsies were cut into ˜3×3 mm pieces and incubated in serum free DMEM with 1% penicillin/streptomycin (Invitrogen) and exposed to LPS and/or LL-37.

NCM460 colonocytes = assay: Apoptosis (cleaved PARP) in NCM460 colonocytes; type: cell-based, human; details: LL-37 10 μM; proinflammatory cytokine cocktail or TNFα 10 ng/ml; 24 hours
Protocol: NCM460 cells were treated with proinflammatory cytokines cocktail or TNFα (10 ng/ml) with or without LL-37 (10 μM) for 24 hours. Apoptosis signaling molecule cleaved PARP was determined by Western blot and quantification. […] All experiments are representative of 3 independent experiments.

[9] = system: TNFα expression in human PBMCs; assay: PAMP induced TNFα protein expression in human PBMCs; type: cell-based; details: 16 hours
Protocol: as §1

CCD-18Co = assay: Cell migration of CCD-18Co in modified Boyden chamber; type: cell-based, human; details: LL-37 0-10 μM; 37° C. for 8 hours
Protocol: Fibroblasts accumulated in the mucosal and submucosal locations as collagen deposition. […] Three different locations (3 separate images) per sample were counted. […] Cell migration was not affected by LL-37 (0-10 μM). Results are representative of 3 independent experiments.

[10] = inhibitor 10 μM pretreatment 30 minutes, 72 hours, p=0.0005

For `N#C/C(=C\c1ccc(O)c(O)c1)C(=O)c1ccc(O)c(O)c1` [AG538], the “LPS induced TNFα expression under IGF-1R inhibition” value ([1]; 16 hours) was “not affected”.

With `N#C/C(=C\c1ccc2oc(=O)[nH]c2c1)C(=O)c1ccc(O)c(O)c1` [AGL2263] the “LPS induced TNFα expression under IGF-1R inhibition” value ([1]; 16 hours) was “not affected”.

For `CN([C@@H](Cc1ccc(OS(=O)(=O)c2cccc3cnccc23)cc1)C(=O)N1CCN(c2ccccc2)CC1)S(=O)(=O)c1cccc2cnccc12` [KN62], the “effect on the anti-inflammatory effect of cathelicidin against LPS” value ([1]; antagonist 10 μM pretreatment 30 minutes, mCRAMP 10 μM, 16 hours) was “did not alter the anti-inflammatory effect of cathelicidin”.

For `COc1cccc(-c2cc(=O)c3ccccc3o2)c1N` [PD98059], the “involvement in the LL-37 mediated inhibition of β-tubulin expression” value (CCD-18Co fibroblasts; inhibitor 10 μM pretreatment 30 minutes, LL-37 10 μM, 72 hours) was “not involved”.

For `N#CC(=C(/N)Sc1ccccc1N)/C(C#N)=C(\N)Sc1ccccc1N` [U0126], the “LPS induced TNFα expression” value [1] was “inhibited; also recorded: suppressed LPS induced TNFα expression”.

With `C=C1[C@@H](C)[C@H]2[C@H](Cc3ccccc3)NC(=O)[C@]23OC(=O)/C=C/[C@H](O)CCC[C@@H](C)C/C=C/[C@H]3[C@@H]1O` [cytochalasin B] the “TGF-β1 and IGF-1 induced COL1A2 expression” value [2, 10] was “affected”, the “tubulin distribution (tubulin tracker)” value (CCD-18Co fibroblasts) was “shrunk tubulin network in cells” and the “TGF-β1 and IGF-1 induced β-tubulin expression” value (CCD-18Co fibroblasts; [10]) was “affected”.

For `CCCC(=O)[O-].[Na+]` [sodium butyrate], the DSS mediated colitis (DSS mediated colitis [3]) is listed as “reduce”, the “Camp mRNA expression” value (Raw264.7 macrophages) is listed as “significantly increased Camp mRNA expression” and the “cathelicidin protein level in conditioned media” value [4] is listed as “significantly increased”. For the same compound, the “decrease of colonic TNFα levels” value (DSS mediated colitis [5]; Camp−/− mice) was 21 % reduction, the “drop of colonic TNFα levels” value (DSS mediated colitis [5]; Camp−/− mice) was 4 pg/μg protein and the “colonic microflora load (16S expression, PCR)” value (DSS mediated colitis [5]; DSS exposed mice) was “did not cause significant change; also recorded: did not alter colonic 16S expression”. For the same compound, the “colonic Camp mRNA expression” value (DSS mediated colitis [5]; DSS treated mice) was “significantly induced; also recorded: further augmented”, the “colonic mCRAMP protein expression (Western blot)” value (DSS mediated colitis [5]; DSS treated wild-type mice) was “significantly induced; also recorded: increased colonic mCRAMP protein expression” and the “colonic TNFα levels” value (DSS mediated colitis [5]; both wild-type and Camp−/− mice, p=0.04) was “significantly reduced colonic TNFα levels”. For the same compound, the “decrease of colonic TNFα levels” value (DSS mediated colitis [5]; wild-type mice) was 40 % reduction, the “drop of colonic TNFα levels” value (DSS mediated colitis [5]; wild-type mice) was 6 pg/μg protein and the histology score (DSS mediated colitis [5]; wild-type mice, intraperitoneal) was “significant decrease of histology score”. For the same compound, the “clinical UC disease activity” value (UC disease activity) was “reduce clinical UC disease activity”.

With “LL-37 (LLGDFFRKSKEKIGKEFKRIVQRIKDFLRNLVPRTES)” the “TGF-β1 and IGF-1 induced COL1A2 mRNA expression” value [6] was “inhibited”, the ERK phosphorylation ([7]; LL-37 up to 10 μM) was “significantly induced” and the Akt phosphorylation [7] was “significantly induced”. The “TGF-β1 and IGF-1 induced COL1A2 expression (Western blot, densitometry)” value ([2]; 10 μM LL-37, TGF-β1 50 ng/ml and IGF-1 10 ng/ml, 48 hours, p=0.0001) was “significantly reduces; also recorded: reduced”, the “TGF-β1 and IGF-1 induced COL1A2 mRNA expression” value ([2]; LL-37 5-10 μM, 24 hours, p=0.001, concentration dependent) was “significantly reduces; also recorded: inhibited” and the “tubulin distribution (tubulin tracker)” value (CCD-18Co fibroblasts) was “shrunk the tubulin network”. The β-tubulin expression (CCD-18Co fibroblasts; LL-37 10 μM, 72 hours) was “inhibition”, the “LPS induced TNFα protein expression in conditioned media” value [8] was “almost abolished” and the “apoptosis (cleaved PARP, Western blot)” value (NCM460 colonocytes) was “failed to reverse PARP cleavage; also recorded: did not affect apoptosis”. The “LPS induced TNFα protein expression in conditioned media” value ([9]; LL-37 10 μM, LPS 0.1 μg/ml) was “significantly reduced”, the “E. coli DNA induced TNFα expression” value ([9]; LL-37 1-10 μM, E. coli DNA 0.5 μg/ml) was “no inhibitory effect” and the cell migration (CCD-18Co) was “not affected”.

For “mouse IGF-1: mouse insulin like growth factor-1”, the “effect on the mCRAMP mediated inhibition of LPS induced TNFα secretion” value ([1]; mouse IGF-1 80 pg/ml pretreatment 30 minutes, mCRAMP 10 μM, 16 hours) was “reversed the mCRAMP mediated inhibition”.

In the case of pertussis toxin, the “effect on the inhibitory effect of cathelicidin against LPS induced TNFα expression” value ([1]; pertussis toxin 500 ng/ml pretreatment overnight, mCRAMP 1-10 μM, 16 hours) is reported as “reversed; also recorded: revered”.
